In patent US6743363B2, “Method of bacteriostasis or disinfection for permselective membrane” (Toray Industries, Inc., priority 1998, dated 2004):
Where two headings read alike, the source gives them in different places.

Legend:
[1] = tested on: un-identified bacteria as separated from the solid deposit suspension; test: Survival rate of cells in 3.5% artificial seawater: cells from deposit on membrane; assay type: cell-based
Experimental: (§1) For comparison, 500 ppm of sodium bisulfite was added in place of sulfuric acid, and the data obtained are also shown in Table 1.

[2] = tested on: suspension of a solid deposit on a reverse osmosis membrane having been used in seawater desalination; test: Survival rate of cells in 3.5% artificial seawater: suspension of deposit on membrane; assay type: cell-based
Experimental: as §1

[3] = tested on: E. coli; test: Survival rate of cells in 3.5% artificial seawater: E. coli; assay type: cell-based, Escherichia coli
Experimental: as §1

[4] = tested on: Acid-resistant Bacteria 1
[5] = tested on: Acid-resistant Bacteria 3
[6] = tested on: Acid-resistant Bacteria 2
[7] = tested on: Escherichia coli K12 IFO 3301; settings: physiological saline 0.9%
[8] = tested on: living cells in the concentrate; settings: Example 1: sulfuric acid pH 3.5 to 4, 30 min/day, running days 1 to 30
Source text: The invention is described concretely with reference to the following Examples, which, however, are not intended to restrict the scope of the invention. In these Examples, the disinfecting effect is represented by the number of living microorganisms, the pressure loss in membrane modules and the consumption of sodium bisulfite (SBS).
Two membrane separation units each having a reverse osmosis membrane of polyamide were driven for seawater desalination through reverse osmosis filtration to produce fresh water. […] In that condition, the two units were continuously driven for 1 month. […] While the units were driven under the condition, the number of the living cells in the concentrate having passed through each unit was counted.

[9] = tested on: marine bacteria; test: Colonies formed on agar medium for marine bacteria from treated seawater mixture; assay type: cell-based; settings: 200 ppm of sulfuric acid, pH 2.8, for 2 hours at 20° C.; 0.1 ml plated on agar pH 7; untreated pH 8.5 gave 200
Experimental: 1% of seawater was added to commercially-available, 3.5% artificial seawater having been subjected to pressure disinfection (at 120° C. for 15 minutes), and the pH of the resulting seawater mixture was measured to be 8.5. After having been kept at 20° C. for 2 hours, 0.1 ml of the seawater mixture was applied onto an agar medium for marine bacteria, of which the pH value had been controlled to be 7, and then kept warmed at 20° C.
The pH of the resulting seawater mixture was 2.8. After having been kept at 20° C. for 2 hours, 0.1 ml of the seawater mixture was applied onto an agar medium for marine bacteria, of which the pH value had been controlled to be 7.

[10] = tested on: acid-resistant bacteria
Experimental: Two membrane separation systems (systems A and B) each comprising a pre-treatment unit and a membrane separation unit having a reverse osmosis membrane module of polyamide were driven for seawater desalination through reverse osmosis filtration to produce fresh water. In these, a culture of the acid-resistant bacteria having been obtained in Reference Example 3 was added to the pre-treated seawater. […] In those conditions, the two systems were continuously driven for 30 days. […] While the systems were driven under the defined conditions, the number of living cells in the concentrate was counted.

[11] = 500 ppm, 2.5 hr, pH 5.9, 20° C.
[12] = 250 ppm, 0.5 hr, pH 2.6, 20° C.
[13] = 250 ppm, 2.5 hr, pH 2.6, 20° C.
[14] = 300 ppm, 0.5 hr, pH 2.6, 20° C.
[15] = 100 ppm, 2.5 hr, pH 5.1, 20° C.
[16] = 150 ppm, 0.5 hr, pH 3.3, 20° C.
[17] = 200 ppm, 0.5 hr, pH 2.9, 20° C.
[18] = 300 ppm, 0.5 hr, pH 2.5, 20° C.
[19] = 120 ppm, 0.5 hr, pH 4.0, 20° C.
[20] = 120 ppm, 2.5 hr, pH 4.0, 20° C.

O=S([O-])O.[Na+] [Sodium Bisulfite, sodium bisulfite, reference compound]
Survival Rate (%) Cells from Deposit on Membrane [1, 11]: 86% | Survival Rate (%) Suspension of Deposit on Membrane [2, 11]: 90% | Survival Rate (%) E. coli [3, 11]: 98%

O=S(=O)(O)O [Sulfuric Acid, sulfuric acid]
Survival Rate (%) Acid-resistant Bacteria 1 ([4]; 200 ppm, 1 hr, pH 2.8, 20° C.): 50% | Survival Rate (%) Acid-resistant Bacteria 1 [4, 12]: 17% | Survival Rate (%) Acid-resistant Bacteria 1 ([4]; 250 ppm, 1 hr, pH 2.6, 20° C.): <1% | Survival Rate (%) Acid-resistant Bacteria 1 [4, 13]: <1% | Survival Rate (%) Acid-resistant Bacteria 1 [4, 14]: 8% | Survival Rate (%) Acid-resistant Bacteria 1 ([4]; 300 ppm, 1 hr, pH 2.4, 20° C.): <1% | Survival Rate (%) Acid-resistant Bacteria 3 ([5]; 200 ppm, 1 hr, pH 2.8, 20° C.): <1% | Survival Rate (%) Acid-resistant Bacteria 3 [5, 12]: 1% | Survival Rate (%) Acid-resistant Bacteria 3 ([5]; 250 ppm, 1 hr, pH 2.6, 20° C.): <1% | Survival Rate (%) Acid-resistant Bacteria 3 [5, 13]: <1% | Survival Rate (%) Acid-resistant Bacteria 3 [5, 14]: <1% | Survival Rate (%) Acid-resistant Bacteria 3 ([5]; 300 ppm, 1 hr, pH 2.4, 20° C.): <1% | Survival Rate (%) Acid-resistant Bacteria 2 ([6]; 200 ppm, 1 hr, pH 2.8, 20° C.): 22% | Survival Rate (%) Acid-resistant Bacteria 2 [6, 12]: 33% | Survival Rate (%) Acid-resistant Bacteria 2 ([6]; 250 ppm, 1 hr, pH 2.6, 20° C.): 2% | Survival Rate (%) Acid-resistant Bacteria 2 [6, 13]: <1% | Survival Rate (%) Acid-resistant Bacteria 2 [6, 14]: 1% | Survival Rate (%) Acid-resistant Bacteria 2 ([6]; 300 ppm, 1 hr, pH 2.4, 20° C.): <1% | survival rate of the cells ([7]; 10 ppm of sulfuric acid, pH 4.7, 20° C., 2.5 hours): ≥ 90% | survival rate of the cells ([7]; 50 ppm of sulfuric acid, pH 3.2, 20° C., 0.5 hours): 90% | survival rate of the cells ([7]; 50 ppm of sulfuric acid, pH 3.2, 20° C., 1 hour): 20% | survival rate of the cells ([7]; 50 ppm of sulfuric acid, pH 3.2, 20° C., 2.5 hours): ≤ 1% | survival rate of the cells ([7]; 100 ppm of sulfuric acid, 20° C., 0.5 hours): ≤ 1% | Number of Living Cells in the concentrate, compared with the unit not subjected to the sulfuric acid treatment [8]:  1/100 or less | Number of Living Cells in the concentrate, compared with the unit not subjected to the sulfuric acid treatment ([8]; listed as sulfuric acid): 1/100 | Survival Rate (%) Cells from Deposit on Membrane [1, 15]: 81% | Survival Rate (%) Cells from Deposit on Membrane [1, 16]: <1% | Survival Rate (%) Cells from Deposit on Membrane [1, 17]: <1% | Survival Rate (%) Cells from Deposit on Membrane [1, 18]: <1% | Number of Colonies Formed [9]: 3 | Survival Rate (%) Suspension of Deposit on Membrane [2, 15]: 60% | Survival Rate (%) Suspension of Deposit on Membrane [2, 19]: 37% | Survival Rate (%) Suspension of Deposit on Membrane [2, 20]: 15% | Survival Rate (%) Suspension of Deposit on Membrane [2, 16]: <1% | Survival Rate (%) Suspension of Deposit on Membrane [2, 17]: <1% | Survival Rate (%) Suspension of Deposit on Membrane [2, 18]: <1% | Survival Rate (%) E. coli [3, 15]: 107% | Survival Rate (%) E. coli [3, 19]: 105% | Survival Rate (%) E. coli [3, 20]: 93% | Survival Rate (%) E. coli [3, 16]: <1% | Survival Rate (%) E. coli [3, 17]: <1% | Survival Rate (%) E. coli [3, 18]: <1% | Ratio of Living Microbes in Concentrate ([10]; pH 2.6, 30 minutes a day): <1 | Ratio of Living Microbes in Concentrate ([10]; pH 3.5 to 4.0, 30 minutes a day): 100 | Ratio of Living Microbes in Concentrate ([10]; pH 3.5 to 4.0, 30 minutes a day, plus pH 2.6, 30 minutes a day (once at intervals of 5 days)): <1
